Reference: patent US7713954B2, “Compositions and methods for treating cognitive disorders” (Roche Palo Alto LLC, priority 2004, dated 2010)
Where two headings read alike, the source gives them in different places.

Legend:
Histamine H1 receptor = biological target: T1, Histamine H1 receptor (Cavia porcellus, UniProt P31389); test: Affinity to Histamine H1 receptor in guinea-pig cerebellum; format: binding; details: read-out: Receptor Affinity (pKi) Histamine H1 (converted)
T1 construct: from tissue; host or cells: guinea-pig cerebellum

human recombinant 5-HT2A = human recombinant 5-HT2A (Homo sapiens, UniProt P28223); test: Receptor affinity at 5-HT2A (Table 1; only a FLIPR calcium method is described); format: binding; details: read-out: Receptor Affinity (pKi) 5-HT2A (converted)
human recombinant 5-HT2C = biological target: T2, human recombinant 5-HT2C (Homo sapiens, UniProt P28335); test: Receptor affinity at 5-HT2C (Table 1; only a FLIPR calcium method is described); format: binding
T2 sequence (P28335 33-458): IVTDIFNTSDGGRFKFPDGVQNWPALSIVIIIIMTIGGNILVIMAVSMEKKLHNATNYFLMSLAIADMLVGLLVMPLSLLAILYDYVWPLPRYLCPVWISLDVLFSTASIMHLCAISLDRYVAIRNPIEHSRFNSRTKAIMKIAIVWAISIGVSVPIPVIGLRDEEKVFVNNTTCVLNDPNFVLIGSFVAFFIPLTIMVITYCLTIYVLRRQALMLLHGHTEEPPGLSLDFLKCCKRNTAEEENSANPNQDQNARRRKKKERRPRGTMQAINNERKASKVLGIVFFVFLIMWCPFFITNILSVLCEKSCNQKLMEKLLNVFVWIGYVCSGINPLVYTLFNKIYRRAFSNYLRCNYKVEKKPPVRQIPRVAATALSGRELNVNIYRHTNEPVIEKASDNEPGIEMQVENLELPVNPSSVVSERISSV

human recombinant M1 = biological target: T3, human recombinant M1 (Homo sapiens, UniProt P11229); test: Binding affinity at Muscarinic M1 receptor; details: read-out: Receptor Affinity (pKi) Muscarinic M1 (converted)
T3 sequence (P11229 1-460): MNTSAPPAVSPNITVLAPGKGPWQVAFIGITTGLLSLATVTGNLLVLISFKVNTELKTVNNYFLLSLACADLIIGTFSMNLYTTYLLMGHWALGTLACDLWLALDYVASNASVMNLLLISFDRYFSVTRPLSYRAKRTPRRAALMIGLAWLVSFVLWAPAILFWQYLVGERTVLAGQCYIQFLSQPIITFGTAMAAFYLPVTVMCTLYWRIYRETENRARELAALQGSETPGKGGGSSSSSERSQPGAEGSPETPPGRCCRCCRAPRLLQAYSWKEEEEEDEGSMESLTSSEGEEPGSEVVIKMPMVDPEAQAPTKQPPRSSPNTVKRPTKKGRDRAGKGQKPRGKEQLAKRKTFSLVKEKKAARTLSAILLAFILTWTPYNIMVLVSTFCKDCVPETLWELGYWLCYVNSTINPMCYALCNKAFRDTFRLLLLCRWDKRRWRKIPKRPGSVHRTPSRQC

male Wistar rats = test: Novel object recognition model, scopolamine-induced memory impairment; format: in vivo, rat; details: for reversal of the memory impairment induced by scopolamine (discrimination index d2): 90 or 60 mins prior to scopolamine 0.1 mg/kg ip; for reversal of scopolamine-induced memory impairment (discrimination index d2): with scopolamine 0.1 mg/kg sc, 30 mins prior to re-release
Description: Twenty-four 5-month-old male Wistar rats were used. The animals were housed individually in standard Makrolon cages on sawdust bedding in an air-conditioned room (about 20° C.). They were kept under a 12/12-hour light/dark cycle (lights on from 18.00 to 6.00 h) and had free access to food and water. Rats were housed and test in different rooms. A radio, which was playing softly, provided background noise in all rooms. All testing was done between 9.00 and 16.00 h.
Scopolamine hydrobromide was prepared daily and dissolved in saline. […] (injection volume 1 ml/kg) 30 minutes before trial 1. Test compounds were prepared daily and dissolved in saline, and the pH was adjusted to pH 5-7 using (0.1 N) NaOH. The compounds were administered orally or i.p. over a range of doses to n=12-24 animals per dose (injection volume 1 ml/kg). Time of dosing prior to first trial (T1) can be chosen to match the expected plasma Cmax for the compound. Administration was always given i.p. (injection volume 1 ml/kg).
The object recognition test was performed as described by Ennaceur and Delacour, Behav. Brain Res., 1988, 31, 47-59. This test measures the memory of an animal, by testing the ability of the animal to recognize that there is a new object in its environment. The apparatus consisted of a circular arena, 83 cm in diameter. Half of the 40 cm high wall was made of gray polyvinyl chloride, the other half of transparent polyvinyl chloride. The light intensity was equal in the different parts of the apparatus. Two objects were placed in a symmetrical position about 10 cm away from the gray wall. Each object was available in triplicate. Four different sets of objects were used: 1) a cone consisting of a gray polyvinyl chloride base (maximal diameter 18 cm) with a brass collar on top (total height 16 cm), 2) a standard 1 l transparent glass bottle (diameter 10 cm, height 22 cm) filled with sand, 3) a massive metal block (10.0×5.0×7.5 cm) with two holes (diameter 1.9 cm), and 4) a massive aluminum block with a tapering top (13.0×8.0×8.0 cm). A rat could not displace the objects. Fluorescent red tubes and a light bulb provided a constant illumination of about 20 lux on the floor of the apparatus.
A testing session comprised two trials. The duration of each trial was 3 min. During the first trial (T1) the apparatus contained two identical objects (samples). A rat was always placed in the apparatus facing the wall at the middle of the front (transparent) segment. After the first exploration period the rat was put back in its home cage. Subsequently, after a predetermined delay interval, the rat was put back in the apparatus for the second trial (T2), but now with two dissimilar objects, a familiar one (the sample) and a new object. The times spent in exploring each object during T1 and T2 were recorded manually with a personal computer. “Exploration” was defined as directing the nose to the object at a distance of no more than 2 cm and/or touching the object with the nose. Sitting on the object was not considered as exploratory behavior. In order to avoid the presence of olfactory trails the objects were always thoroughly cleaned. […]
Rats were treated with Compound 18 (0.3, 1, 3 mg/kg po) or Compound 3 (0.1, 0.3, 1 and 3 mg/kg i.p.) 90 or 60 mins prior to administration of scopolamine (0.1 mg/kg ip). The time each animal spent investigating the novel and familiar objects in the arena during a over a 3 min interval, commencing 30 minutes after the administration of scopolamine, was scored. […]

human 5-HT6 = biological target: T4, human 5-HT6 (Homo sapiens, UniProt P50406); test: Competition binding with [3H]-LSD at membranes of HEK-293 cells expressing human 5-HT6
T4 construct: expressed in transfected cells; host or cells: HEK-293 (HEK293-h5-HT6)
Description: All test and control compounds were dissolved in 100% DMSO at 10 mM and diluted as indicated in aqueous assay buffer. K1 values are presented at the mean and standard deviation of 3 separate determinations each consisting of the compound tested at each concentration in duplicate.

human recombinant M2 = biological target: T5, human recombinant M2 (Homo sapiens, UniProt P08172); test: Binding affinity at Muscarinic M2 receptor; details: read-out: Receptor Affinity (pKi) Muscarinic M2 (converted)
T5 sequence (P08172 1-466): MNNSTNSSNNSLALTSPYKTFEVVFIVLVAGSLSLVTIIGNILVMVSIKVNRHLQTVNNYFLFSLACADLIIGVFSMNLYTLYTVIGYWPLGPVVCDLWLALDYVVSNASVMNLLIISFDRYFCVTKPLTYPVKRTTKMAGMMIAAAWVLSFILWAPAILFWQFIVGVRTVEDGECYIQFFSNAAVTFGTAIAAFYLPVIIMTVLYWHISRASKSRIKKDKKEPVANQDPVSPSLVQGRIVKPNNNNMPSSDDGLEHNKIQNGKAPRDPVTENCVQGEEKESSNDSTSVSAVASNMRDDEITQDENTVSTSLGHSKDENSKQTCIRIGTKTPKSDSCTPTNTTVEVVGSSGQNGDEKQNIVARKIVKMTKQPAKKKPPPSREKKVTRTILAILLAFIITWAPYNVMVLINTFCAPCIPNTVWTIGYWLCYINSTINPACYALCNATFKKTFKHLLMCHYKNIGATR

[1] = biological target: human recombinant D2 receptor (Homo sapiens, UniProt P14416); test: Ligand binding affinity at Dopamine D2 receptor; details: read-out: Receptor Affinity (pKi) Dopamine D2 (converted)
[2] = test system: rat brain hippocampal slices (CA1 region); test: Long term potentiation in rat hippocampal slices (CA1), fEPSP; format: cell-based; details: weak tetanus 50 Hz, 500 ms; room temperature
[3] = read-out: Receptor Affinity (pKi) 5-Ht2C (converted)
[4] = [3H]-LSD, HEK293-h5-HT6 membranes, read-out: Receptor Affinity (pKi) 5-HT6 (converted)

Chain of human recombinant D2 receptor (P14416 whole entry): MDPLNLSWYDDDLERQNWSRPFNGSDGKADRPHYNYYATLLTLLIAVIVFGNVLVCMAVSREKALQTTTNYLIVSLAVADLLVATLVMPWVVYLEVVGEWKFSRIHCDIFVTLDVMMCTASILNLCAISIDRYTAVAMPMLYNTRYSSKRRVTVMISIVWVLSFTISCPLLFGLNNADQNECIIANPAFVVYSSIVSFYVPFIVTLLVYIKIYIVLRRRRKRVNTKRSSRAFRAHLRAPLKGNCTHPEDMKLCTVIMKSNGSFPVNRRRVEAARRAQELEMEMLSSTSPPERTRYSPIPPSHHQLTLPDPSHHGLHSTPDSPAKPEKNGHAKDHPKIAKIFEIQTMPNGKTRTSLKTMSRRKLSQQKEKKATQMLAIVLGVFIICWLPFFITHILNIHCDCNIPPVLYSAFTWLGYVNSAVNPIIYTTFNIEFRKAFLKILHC
T1 sequence (P31389 whole entry): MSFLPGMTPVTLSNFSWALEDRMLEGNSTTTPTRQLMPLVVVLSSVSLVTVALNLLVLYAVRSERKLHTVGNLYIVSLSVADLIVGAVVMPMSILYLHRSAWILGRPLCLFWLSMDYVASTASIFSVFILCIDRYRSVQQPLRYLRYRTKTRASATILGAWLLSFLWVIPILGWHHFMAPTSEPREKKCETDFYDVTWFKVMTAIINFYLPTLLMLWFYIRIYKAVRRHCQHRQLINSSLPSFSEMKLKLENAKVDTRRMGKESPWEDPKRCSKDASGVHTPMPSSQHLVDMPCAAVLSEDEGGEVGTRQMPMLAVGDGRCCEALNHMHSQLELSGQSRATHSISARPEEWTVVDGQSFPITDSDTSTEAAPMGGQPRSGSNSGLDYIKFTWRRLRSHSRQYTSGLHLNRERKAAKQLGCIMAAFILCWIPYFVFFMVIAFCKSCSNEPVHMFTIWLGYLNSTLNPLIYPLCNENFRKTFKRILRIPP
T4 sequence (P50406 whole entry): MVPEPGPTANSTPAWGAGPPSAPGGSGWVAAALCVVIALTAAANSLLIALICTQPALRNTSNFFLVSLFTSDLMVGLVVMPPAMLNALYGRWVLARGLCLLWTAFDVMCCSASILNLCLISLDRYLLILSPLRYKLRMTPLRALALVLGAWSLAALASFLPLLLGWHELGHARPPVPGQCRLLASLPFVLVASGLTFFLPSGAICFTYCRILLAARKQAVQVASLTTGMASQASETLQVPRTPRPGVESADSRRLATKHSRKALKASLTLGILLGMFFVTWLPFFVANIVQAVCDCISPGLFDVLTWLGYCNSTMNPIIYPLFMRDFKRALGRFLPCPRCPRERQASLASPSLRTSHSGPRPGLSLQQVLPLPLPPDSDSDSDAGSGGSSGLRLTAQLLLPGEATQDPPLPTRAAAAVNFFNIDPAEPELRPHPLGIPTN
Chain of human recombinant 5-HT2A (P28223 whole entry): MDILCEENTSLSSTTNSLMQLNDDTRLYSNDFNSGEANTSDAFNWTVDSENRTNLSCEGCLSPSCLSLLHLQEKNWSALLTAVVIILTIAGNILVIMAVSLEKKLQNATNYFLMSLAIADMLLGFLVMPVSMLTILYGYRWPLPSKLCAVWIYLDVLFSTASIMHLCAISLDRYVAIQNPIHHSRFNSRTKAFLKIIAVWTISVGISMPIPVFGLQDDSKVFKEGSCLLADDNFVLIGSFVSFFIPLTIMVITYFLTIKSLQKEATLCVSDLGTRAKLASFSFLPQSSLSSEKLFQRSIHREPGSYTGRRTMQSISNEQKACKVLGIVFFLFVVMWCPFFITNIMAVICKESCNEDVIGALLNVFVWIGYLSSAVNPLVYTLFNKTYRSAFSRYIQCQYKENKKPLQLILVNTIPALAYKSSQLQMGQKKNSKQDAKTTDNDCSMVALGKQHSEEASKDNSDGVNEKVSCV

For `O=C1COc2c(N3CCNCC3)cccc2N1Cc1ccccc1` [Compound 3, 4-benzyl-8-piperazin-1-yl-4H-benzo[1,4]oxazin-3-one], the Ki (Histamine H1 receptor) was over 1000 nM, the Ki (human recombinant 5-HT2A) was 1.26 nM and the Ki (human recombinant 5-HT2C) was 63.1 nM. For the same molecule, the Ki (human recombinant M1) was over 1000 nM, the “reversal of the memory impairment induced by scopolamine (discrimination index d2)” value (male Wistar rats; 0.3 mg/kg i.p.) was “statistically significant reversal” and the Ki (human 5-HT6) was 0.158 nM. The Ki (human recombinant M2) was over 1000 nM and the Ki [1] was over 1000 nM.

In the case of `O=C1NCc2c(N3CCNCC3)cccc2N1Cc1cccc(F)c1` [Compound 18, 1-(3-Fluoro-benzyl)-5-piperazin-1-yl-3,4-dihydro-1H-quinazolin-2-one], the Ki (Histamine H1 receptor) is reported as over 1000 nM, the Ki (human recombinant 5-HT2A) is reported as 2 nM and the Ki (human recombinant 5-HT2C) is reported as 63.1 nM. For the same molecule, the Ki (human recombinant M1) was over 1000 nM, the “reversal of the memory impairment induced by scopolamine (discrimination index d2)” value (male Wistar rats; 0.3 mg/kg po) was “statistically significant reversal” and the “reversal of the memory impairment induced by scopolamine (discrimination index d2)” value (male Wistar rats; 1 mg/kg po) was “statistically significant reversal”. For the same molecule, the Ki (human 5-HT6) was 0.631 nM, the Ki (human recombinant M2) was over 1000 nM and the Ki [1] was over 1000 nM.

In the case of `CN1CCN(c2cccc3c(S(=O)(=O)c4ccccc4)c[nH]c23)CC1` [Compound 32, 3-phenylsulfonyl-7-(4-methyl-piperazin-1-yl)-1H-indole], the Ki (Histamine H1 receptor) is reported as over 316 nM, the Ki (human recombinant 5-HT2A) is reported as 79.4 nM and the Ki (human recombinant 5-HT2C; [3]) is reported as 158 nM. For the same molecule, the Ki (human recombinant M1) was over 316 nM, the “reversal of scopolamine-induced memory impairment (discrimination index d2)” value (male Wistar rats; 3 mg/kg ip) was “Statistically significant reversal” and the Ki (human 5-HT6; [4]) was 0.316 nM. The Ki (human recombinant M2) was over 316 nM and the Ki [1] was over 1000 nM.

`N=C(N)NCC1CCCc2cc(S(=O)(=O)c3ccccc3)ccc21` (stereo not drawn) [Compound 52, N-(6-Phenylsulfonyl-1,2,3,4-tetrahydro-naphthalen-1-ylmethyl)-guanidine] gave a Ki (Histamine H1 receptor) of over 1000 nM, a Ki (human recombinant 5-HT2A) of 794 nM and a Ki (human recombinant 5-HT2C; [3]) of 1000 nM. For the same molecule, the Ki (human recombinant M1) was over 1000 nM, the Ki (human 5-HT6; [4]) was 1.26 nM and the Ki (human recombinant M2) was over 1000 nM. For the same molecule, the Ki [1] was over 1000 nM.

With `O=c1[nH]c2c(N3CCNCC3)cccc2n1Cc1ccccc1` [Compound 64, 1-Benzyl-4-piperazin-1-yl-1,3-dihydro-benzoimidazol-2-one] the Ki (Histamine H1 receptor) was over 316 nM, the Ki (human recombinant 5-HT2A) was 25.1 nM and the Ki (human recombinant 5-HT2C; [3]) was 631 nM. For the same molecule, the Ki (human recombinant M1) was 200 nM, the Ki (human 5-HT6) was 0.251 nM and the Ki (human recombinant M2) was over 316 nM. The Ki [1] was over 1000 nM.

In the case of `COc1cccc([C@H](O)C2CCN(CCc3ccc(F)cc3)CC2)c1OC` [MDL-100907, R-α-(2,3-dimethoxyphenyl)-1-[2-(4-fluorophenyl)ethyl]-4-piperidinemethanol, reference compound], the “long term potentiation, increase in slope of fEPSP relative to pre-tetanus baseline” value [2] is reported as “Increase in long term potentiation” and the “reversal of scopolamine-induced memory impairment (discrimination index d2)” value (male Wistar rats; 0.3 mg/kg ip) is reported as “Statistically significant reversal”.

For `CN(C)CCO/N=C(/C=C/c1ccc(O)cc1)c1ccccc1F` [SR46349B, (1Z,2E)-1-(2-fluorophenyl)-3-(4-hydroxyphenyl)prop-2-en-1-one-O-(2-dimethylaminoethyl)oxime, reference compound], the Ki (Histamine H1 receptor) was over 1000 nM, the Ki (human recombinant 5-HT2A) was 1 nM and the Ki (human recombinant 5-HT2C) was 100 nM. It also gave a Ki (human recombinant M1) of over 316 nM, a Ki (human 5-HT6; [4]) of over 1000 nM and a Ki (human recombinant M2) of over 1000 nM. It also gave a Ki [1] of over 1000 nM.
